This is an account of results in patent US9062026B2, “Fused pyrimidines and substituted quinazolines as inhibitors of p97” (Cleave Biosciences, Inc., priority 2012, dated 2015).

SMILES strings stand for the structures.

Chain of p97 (P55072 whole entry): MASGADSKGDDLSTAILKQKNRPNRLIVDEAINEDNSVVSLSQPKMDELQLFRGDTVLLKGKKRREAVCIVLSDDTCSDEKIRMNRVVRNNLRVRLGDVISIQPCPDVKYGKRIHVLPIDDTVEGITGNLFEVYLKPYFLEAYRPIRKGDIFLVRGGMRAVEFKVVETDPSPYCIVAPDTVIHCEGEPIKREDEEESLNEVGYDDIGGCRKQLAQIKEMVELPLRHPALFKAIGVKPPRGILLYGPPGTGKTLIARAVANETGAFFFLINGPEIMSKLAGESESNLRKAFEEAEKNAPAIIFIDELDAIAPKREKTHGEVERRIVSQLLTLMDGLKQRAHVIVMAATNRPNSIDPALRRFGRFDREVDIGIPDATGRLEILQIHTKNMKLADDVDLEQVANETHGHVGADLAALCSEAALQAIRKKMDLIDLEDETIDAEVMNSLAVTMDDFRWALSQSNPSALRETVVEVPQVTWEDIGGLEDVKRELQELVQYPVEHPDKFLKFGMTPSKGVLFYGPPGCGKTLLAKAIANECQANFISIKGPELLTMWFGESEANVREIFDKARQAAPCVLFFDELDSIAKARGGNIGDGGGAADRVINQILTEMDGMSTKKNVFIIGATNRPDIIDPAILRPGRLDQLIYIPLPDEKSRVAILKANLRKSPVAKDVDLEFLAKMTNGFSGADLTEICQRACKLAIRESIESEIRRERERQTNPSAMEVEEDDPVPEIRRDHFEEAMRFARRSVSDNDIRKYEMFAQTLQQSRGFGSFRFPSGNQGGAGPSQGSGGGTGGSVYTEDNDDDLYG

The target in this assay is p97 (Homo sapiens (Human), UniProt P55072). In words: P97 ATPase biochem assay (ADP Glo). The format is biochemical. To be noted: 20 nM p97, 20 μM ATP, 37° C., 15 minutes; read-out: p97 biochem IC50. As to the method:
The ATPase assay is performed according the following protocol: Purified enzyme (20 nM p97), substrate (20 μM ATP) and a dose titration of compounds are mixed in buffer (50 mM TRIS pH 7.5, 20 mM MgCl2, 0.02% TX-100, 1 mM DTT, 0.2% (v/v) glycerol) and incubated at 37° C. for 15 minutes. The reaction is terminated and the level of product generated is measured using the ADP Glo Assay Kit (Promega, Madison Wis.). Plotting product generated versus compound concentration and using a four-parameter fit model generates an IC50 value for each compounds.
As for `COc1cccc2c(NCc3ccccc3)nc(-n3c(C)nc(C)c3C)nc12`, the IC50 was less than 25000 nM.
With `CCC1=NC(C)=C(C)C1c1nc(NCc2ccccc2)c2cccc(OC)c2n1` (centres unmarked) the figure was less than 25000 nM; with `COc1cccc2c(NCc3ccccc3)nc(CCc3ccccc3)nc12`, less than 25000 nM; with `COc1cccc2c(NCc3ccccc3)nc(CCC(C)C)nc12`, less than 10000 nM.
With `COc1cccc2c(NCc3ccccc3)nc(N3CCOc4ccccc43)nc12` the figure was less than 5000 nM; with `COc1cccc2c(NCc3ccccc3)nc(-n3c(N)nc4cccc(F)c43)nc12`, less than 10000 nM; with `COc1cccc2c(NCc3ccccc3)nc(-n3c(C)nc4ccccc43)nc12`, less than 2000 nM.
The same measure for `COc1cccc2c(NCc3ccccc3)nc(-n3cnc4ccccc43)nc12`: less than 2000 nM.
For the molecule `COc1cccc2c(NCc3ccccc3)nc(-n3c(OC)nc4ccccc43)nc12`, the IC50 is less than 2000 nM.
As for `COc1cccc2c(NCc3ccccc3)nc(Nc3ccccn3)nc12`, the IC50 was less than 10000 nM.
As for `COc1cccc2c(NCc3nccs3)nc(-n3c(N)nc4ccccc43)nc12`, the half-maximal inhibitory concentration (IC50) was less than 25000 nM.
With `NCCOc1cccc2c(NCc3ccccc3)nc(-n3c(N)nc4ccccc43)nc12` the figure was less than 2000 nM; with `COCCOc1cccc2c(NCc3ccccc3)nc(-n3c(N)nc4ccccc43)nc12`, less than 2000 nM; with `NC(=O)COc1cccc2c(NCc3ccccc3)nc(-n3c(N)nc4ccccc43)nc12`, less than 2000 nM.
`COCc1cccc2c(NCc3ccccc3)nc(-n3c(N)nc4ccccc43)nc12`: the IC50 was less than 2000 nM.
With `Cc1cc2ccccc2n1-c1nc(NCc2ccccc2)c2cccc(CN)c2n1` the figure was less than 2000 nM; with `CN(C)Cc1cccc2c(NCc3ccccc3)nc(-n3c(N)nc4ccccc43)nc12`, less than 25000 nM.
The same measure for `COc1nc2ccccc2n1-c1nc(NCc2ccccc2)c2ncsc2n1`: less than 2000 nM.
Take `Nc1nc2ccccc2n1-c1nc(NCc2ccccc2)c2nc[nH]c2n1`: the IC50 is less than 5000 nM.
Take `Nc1nc2ccccc2n1-c1nc2c(c(NCc3ccccc3)n1)CCC2`: the IC50 is less than 2000 nM.
As to `COCc1nc(-n2c(N)nc3ccccc32)nc(NCc2ccccc2)c1C`, the IC50 was less than 5000 nM.
With `COc1cccc2c(NCc3ccccc3)nc(Nc3ncc[nH]3)nc12`, the IC50 is less than 10000 nM.
With `CNc1nc2ccccc2n1-c1nc(NCc2ccccc2)c2cccc(OC)c2n1` the figure was less than 2000 nM.
With `COc1cccc2c(NCc3ccccc3)nc(-n3c(N(C)C)nc4ccccc43)nc12` the figure was less than 2000 nM; with `COc1cccc2c(NCc3ccccc3)nc(-n3c(NC(C)=O)nc4ccccc43)nc12`, less than 5000 nM; with `COc1cccc2c(NCc3ccccc3)nc(-c3c(N)[nH]c4ccccc34)nc12`, less than 2000 nM.
With `COc1cccc2c(NCc3ccccc3)nc(N3c4ccccc4CC3C)nc12` (centres unmarked) the figure was less than 5000 nM.
Turning to `COc1cccc2c(NCc3ccccc3)nc(N(C(N)=O)c3ccccc3)nc12`, the IC50 is less than 5000 nM.
`COc1cccc2c(NCc3ccccc3)nc(N3C(=O)Cc4ccccc43)nc12`: the IC50 was less than 2000 nM.
Turning to `COc1cccc2c(NCc3ccco3)nc(-n3c(N)nc4ccccc43)nc12`, the IC50 is less than 5000 nM.
With `COc1cccc2c(NCc3ccoc3)nc(-n3c(N)nc4ccccc43)nc12`, the IC50 was less than 5000 nM.
The same measure for `COc1cccc2c(NCc3ccccc3)nc(-n3c(=O)[nH]c4ccccc43)nc12`: less than 2000 nM.
The same measure for `COc1cccc2c(NCc3ccccc3)nc(-n3c(=O)n(C)c4ccccc43)nc12`: less than 5000 nM; for `COc1cccc2c(NCc3ccccc3)nc(-n3c(CN)nc4sccc43)nc12`: less than 2000 nM.
Turning to `COc1cccc2c(NCc3ccccc3)nc(-n3c(C)cc4ccccc43)nc12`, the IC50 was less than 2000 nM.
The same measure for `COc1cccc2c(NCc3ccccc3)nc(C(C)c3ccccc3)nc12` (centres unmarked): less than 10000 nM.
With `COc1cccc2c(NCc3ccccc3)nc(C3NCc4ccccc43)nc12` (centres unmarked) the figure was less than 5000 nM; with `COc1cccc2c(NCc3ccccc3)nc(C3CNc4ccccc43)nc12` (centres unmarked), less than 2000 nM; with `COC1=Nc2ccccc2C1c1nc(NCc2ccc(F)cc2)c2cccc(OC)c2n1` (centres unmarked), less than 2000 nM.
For the molecule `COc1nc2ccccc2n1-c1nc2c(c(NCc3ccccc3)n1)CNCC2`, the IC50 was less than 2000 nM.
Take `Cc1cc2ccccc2n1-c1nc2c(c(NCc3ccccc3)n1)CNCC2`: the IC50 is less than 2000 nM.
With `Cc1cc2ccccc2n1-c1nc2c(c(NCc3ccccc3)n1)CCNC2` the figure was less than 2000 nM; with `COc1cccc2c(NCc3ccccc3)nc(-n3c(CN)cc4ccccc43)nc12`, less than 2000 nM; with `COc1cccc2c(NCc3ccccc3)nc(-n3ccc4ccccc43)nc12`, less than 2000 nM.
As to `COc1cccc2c(NCc3ccccc3)nc(-n3cc(C)c4ccccc43)nc12`, the IC50 was less than 10000 nM.
For the molecule `COc1cccc2c(NCc3ccccc3)nc(-c3c(C)oc4ccccc34)nc12`, the IC50 was less than 2000 nM.
On to `Cc1cc2ccccc2n1-c1nc(NCc2ccccc2)c2cccc(C(N)=O)c2n1`, for which the IC50 was less than 2000 nM.
With `Cc1cc2ccccc2n1-c1nc2c(c(NCc3ccccc3)n1)COC2` the figure was less than 2000 nM; with `Cc1cc2ccccc2n1-c1nc(NCc2ccccc2)c2cccc(C#N)c2n1`, less than 2000 nM; with `Cc1cc2ccccc2n1-c1nc2c(c(NCc3ccccc3)n1)CCN(C(=O)OC(C)(C)C)C2`, less than 2000 nM.
As to `CC(=O)N1Cc2nc(-n3c(C)cc4ccccc43)nc(NCc3ccccc3)c2C1`, the IC50 was less than 2000 nM.
In the case of `CC(=O)N1CCc2nc(-n3c(C)cc4ccccc43)nc(NCc3ccccc3)c2C1`, the half-inhibitory concentration (IC50) is less than 2000 nM.
The same measure for `CC(=O)N1CCc2c(nc(C3C(C)=Cc4ccccc43)nc2NCc2ccccc2)C1` (centres unmarked): less than 2000 nM; for `COc1cc2ccccc2n1-c1nc(NCc2ccccc2)c2c(n1)C(=O)N(C(=O)OC(C)(C)C)CC2`: less than 2000 nM.
As to `Cc1cc2ccccc2n1-c1nc2c(c(NCc3ccccc3)n1)CCCC2`, the IC50 was less than 2000 nM.
Turning to `CCc1cc2ccccc2n1-c1nc2c(c(NCc3ccccc3)n1)CCCC2`, the IC50 is less than 5000 nM.
As for `CC(N)c1cc2ccccc2n1-c1nc2c(c(NCc3ccccc3)n1)CCCC2` (centres unmarked), the IC50 was less than 2000 nM.
In the case of `COCCOc1cccc2c(NCc3ccccc3)nc(C3C(ON)=Nc4ccccc43)nc12` (centres unmarked), the IC50 is less than 2000 nM.
The same measure for `C=CC(=O)NCc1cc2ccccc2n1-c1nc(NCc2ccccc2)c2cccc(OC)c2n1`: less than 2000 nM.
With `CCc1nc2ccccc2n1-c1nc(NCc2ccccc2)c2cccc(OC)c2n1` the figure was less than 2000 nM.
As to `COCc1cc2ccccc2n1-c1nc2c(c(NCc3ccccc3)n1)CCCC2`, the IC50 is less than 2000 nM.
Take `CC(=O)C1CCc2c(nc(-n3c(CN)cc4ccccc43)nc2NCc2ccccc2)C1` (centres unmarked): the half-maximal inhibitory concentration (IC50) was less than 2000 nM.
As to `CCN1CCc2c(nc(-n3c(CN)cc4ccccc43)nc2NCc2ccccc2)C1`, the IC50 was less than 2000 nM.
Take `COC(=O)N1CCc2c(nc(-n3c(CN)cc4ccccc43)nc2NCc2ccccc2)C1`: the IC50 is less than 2000 nM.
With `NCc1cc2ccccc2n1-c1cc(NCc2ccccc2)c2c(n1)CN(C(N)=O)CC2` the figure was less than 2000 nM; with `CS(=O)(=O)N1CCc2c(nc(-n3c(CN)cc4ccccc43)nc2NCc2ccccc2)C1`, less than 2000 nM; with `CNCCN1CCc2c(nc(-n3c(CN)cc4ccccc43)nc2NCc2ccccc2)C1`, less than 10000 nM.
With `CNCC(=O)N1CCc2c(nc(-n3c(CN)cc4ccccc43)nc2NCc2ccccc2)C1` the figure was less than 10000 nM.

The term IC50 denotes the concentration that inhibits the measured activity by half.
